Results published in paper PMC5884906, “Single Administration of HBK-15—a Triple 5-HT1A, 5-HT7, and 5-HT3 Receptor Antagonist—Reverses Depressive-Like Behaviors in Mouse Model of Depression Induced by Corticosterone” (Molecular Neurobiology, 2017).
Marks after values point to notes of the source that are not given here.

Assays:
[1] = test system: BDNF level in the hippocampus; assay: BDNF level in the hippocampus (ELISA), single administration; type: in vivo, mice; conditions: single 1 mg/kg i.p., corticosterone-treated mice
Method: (§1) Mice were injected with corticosterone (s.c., 20 mg/kg) at random times during the light phase for consecutive 21 days (Fig. 1c). The dose and route of administration of corticosterone were based on studies performed by Zhao and colleagues. After the end of the procedure, next day 30 min before the test, corticosterone-treated mice were given (i.p.) saline, HBK-15 (1.25 mg/kg), fluoxetine (10 mg/kg), or ketamine (1 mg/kg) (Fig. 1c). Control mice received (i.p.) saline. The experimental groups consisted of eight randomly selected animals. We chose the dose of HBK-15 that was active in the chronic experiments (i.e., 1.25 mg/kg). The dose of ketamine was based on the studies performed by Pazini and colleagues. Animals were tested in the forced swim test and spontaneous locomotor activity test. After behavioral testing, mice were scarified and their hippocampi collected for biochemical analysis.
After the behavioral assessments, mice were sacrificed, and their brains were rapidly removed and chilled in an ice-cold saline solution. The hippocampi were dissected on a cold plate, frozen, and stored at −80 °C until assay. On the day of experiments, tissues were thawed on ice and homogenized (1:9 w/v) in phosphate-buffered saline (4 °C) and protease inhibitor cocktail was added. The 10% homogenates were prepared and homogenized for 30 s with TissueRuptor homogenizer. The homogenized tissues were centrifuged (2500×g at 4 °C for 20 min), and the supernatants were collected for further assays.
Protein concentrations of BDNF and NGF in homogenates from hippocampi were determined using the enzyme-linked immunosorbent assay (ELISA) kits (BDNF: DZE201020014, SunRed Biotechnology Company; NGF: MBS825100, MyBioSource) according to the manufacturer’s instructions. […] The samples were analyzed in duplicates, and the mean concentrations were calculated. […] The intensity of the color was read at 450 nm. Absorbance was measured in a multifunction plate reader (POLARstar Omega, BMG Labtech, Germany). […]

[2] = test system: corticosterone-treated mice; assay: forced swim test, single administration, corticosterone model; type: in vivo; conditions: single 1 mg/kg i.p., 30 min before the test
Method: as §1
Forced swim test was performed according to the method described by Porsolt and colleagues and previously described. Mice were placed individually for 6 min in glass cylinders (height 25 cm, diameter 10 cm) containing […] (23–25 °C). The total time of immobility was recorded during the final 4 min of the test. The experiments were recorded and scored using aLab.io software by a trained observer blind to the treatments.

[3] = test system: corticosterone-treated mice; assay: spontaneous locomotor activity, single administration; type: in vivo; conditions: single 1 mg/kg i.p. in corticosterone-treated mice; 4 min
Method: as §1, with “After the end of the procedure, next day 30 min before the test, corticosterone-treated mice were given (i.p.) saline, HBK-15 (1.25 mg/kg), fluoxetine (10 mg/kg), or ketamine (1 mg/kg) (Fig. 1c).” left out
The locomotor activity was performed as previously described. Locomotor activity was recorded individually for each mouse using activity cages made of clear Perspex (40 cm × 40 cm × 31 cm, Activity Cage 7441, Ugo Basile, Italy). The cages were supplied with I.R. horizontal beam emitters connected to a counter for the recording of light-beam interruptions. Each mouse was placed in a cage for a 30-min habituation period. After that time, the number of crossings of photobeams was measured for 6 min (chronic studies) or for 4 min (acute experiments; i.e., the time equal to the observation period in the forced swim test). The cages were disinfected with 70% ethanol after each mouse.

[4] = target: T1, 5-HT3 receptors expressed in guinea pig ileum (Cavia porcellus, UniProt O70212); parameters: method as in PMID 25847619; conditions: functional affinity; cited from earlier work
T1 construct: A segment (15 cm) of male guinea pig ileum was excised from the small intestine; from tissue; host or cells: isolated male guinea pig ileum segments in an organ bath
T1 sequence (O70212 20-490): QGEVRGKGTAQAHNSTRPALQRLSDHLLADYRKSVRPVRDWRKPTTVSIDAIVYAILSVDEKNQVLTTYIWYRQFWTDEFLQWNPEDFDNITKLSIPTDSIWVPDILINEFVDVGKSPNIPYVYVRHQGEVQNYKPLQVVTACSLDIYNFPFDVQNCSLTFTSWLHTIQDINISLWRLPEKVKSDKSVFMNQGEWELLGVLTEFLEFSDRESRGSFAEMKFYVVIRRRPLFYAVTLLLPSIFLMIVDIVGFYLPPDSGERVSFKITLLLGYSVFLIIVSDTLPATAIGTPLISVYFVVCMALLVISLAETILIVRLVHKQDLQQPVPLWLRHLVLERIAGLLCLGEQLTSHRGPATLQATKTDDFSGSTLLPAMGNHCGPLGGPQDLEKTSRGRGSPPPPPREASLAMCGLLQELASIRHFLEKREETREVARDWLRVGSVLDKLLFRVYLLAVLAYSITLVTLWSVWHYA

Compound: CNC1(c2ccccc2Cl)CCCCC1=O (stereo not shown) [ketamine]
- increase in BDNF level in the hippocampus compared with controls [1]: 33%
- effect on corticosterone-induced increase in immobility [2]: reversed an increase in immobility
- Number of crossings ± S.E.M [3]: 248.7 ± 25.3

Compound: Cc1nccn1CC1CCc2c(c3ccccc3n2C)C1=O (stereo not shown) [Ondansetron]
- 5-HT3 receptor pK B ± S.E.M [4]: 7.111 ± 0.12^a
